Residues, ends and D or L forms follow the SMILES beside them. *: point of attachment. Cbz = O=C(OCc1ccccc1)*; OtBu = CC(C)(C)O*; βAla = NCCC(=O)O
Question: With CS(=O)(=O)c1ccc(Oc2cc(OC3CCOCC3)c3[nH]c(C4=NCC(CC(=O)NCCO)S4)cc3c2)cn1 (centres undefined) as the compound, how does the melting point read?
Answer: 157 to 158 °C

Question: For CS(=O)(=O)On1nnc2ccccc21, which melting point is on record?
Answer: 88 to 90 °C

Question: For N#CC(C(=O)Nc1ccccc1)C(=O)c1nn(-c2ccccc2)c2c1COc1ccc(Cl)cc1-2 (centres undefined), which melting point is on record?
Answer: 243 to 246 °C

Question: With NCc1ccc(N2CCN(c3ccc(OCC(=O)O)cc3)C2=O)cc1 as the compound, how does the melting point read?
Answer: > 250 °C

Question: For N#CCc1ccc(-c2coc3cc(O)c(O)cc3c2=O)cc1, which melting point is on record?
Answer: 258 to 260 °C

Question: For Nc1cc(C(c2cc(F)ccc2F)S(=O)(=O)c2ccc(F)cc2)c(Cl)cn1 (centres undefined), which melting point is on record?
Answer: 157 to 159 °C

Question: With CN1CCC(Sc2ccc3[nH]c(=O)[nH]c(=O)c3c2)CC1 as the compound, how does the melting point read?
Answer: > 260 °C

Question: Which melting point does the source give for CNc1nnc(-c2ccc3ncn(-c4cccc(OC(F)(F)F)c4)c3c2)o1 here?
Answer: 226 to 227 °C

Question: Which melting point does the source give for Cc1oc(-c2ccccc2)nc1COc1ccc(/C=C/CO)cc1C(F)(F)F here?
Answer: 152 to 153 °C

Question: With CC(=O)Oc1ccc([N+](=O)[O-])cc1C1(OC(C)=O)C(=O)c2ccccc2C1=O as the compound, how does the melting point read?
Answer: 163 to 167 °C

Question: With Cc1ccc(C(=O)N2CC3CC2CN3c2nc(-c3ccncc3)cc(=O)n2C)cc1 (centres undefined) as the compound, how does the melting point read?
Answer: 118 to 120 °C

Question: For CC1(C(=O)c2ccc(C(=O)O)cc2)CC1, which melting point is on record?
Answer: 136 to 137 °C

Question: For CC(=O)Oc1ccccc1CC1c2ccccc2Oc2ccccc21, which melting point is on record?
Answer: 77 to 79 °C

Question: With CCC(=O)Nc1cscn1 as the compound, how does the melting point read?
Answer: 129 to 132 °C

Question: For CCCC1=Nc2ccccc2CC(c2ccsc2)N1C (centres undefined), which melting point is on record?
Answer: 44.5 to 46.5 °C

Question: Which melting point does the source give for COC(=O)C(Cc1ccc(OCc2ccccc2)cc1)NC(=O)c1cc2ccc(-c3ccc(Cl)cc3)cc2[nH]1 (centres undefined) here?
Answer: 196 to 198 °C

Question: For Cc1cc(COc2c(Cl)cc(CCl)cc2Cl)oc(=O)c1, which melting point is on record?
Answer: 136 °C

Question: For O=C1CCC(CCC(=O)OCc2ccccc2)N1 (centres undefined), which melting point is on record?
Answer: 79 to 80 °C

Question: For COCCOCCn1cc(C(=O)NCc2ccc(Cl)cc2)c(=O)c2cc(CN3CC[C@@H](O)C3)ccc21, which melting point is on record?
Answer: 106 to 109 °C

Question: Which melting point does the source give for Cc1cc(C=CC#N)cc(C(=O)c2c(C(C)C)c(=O)[nH]c(=O)n2CC2CC2)c1 here?
Answer: 225 to 226 °C

Question: With O=[N+]([O-])c1cn2c(n1)O[C@@H](COc1ccc(N3CCC(Nc4ccc(Oc5ccc(OC(F)(F)F)cc5)cc4)CC3)cc1)CC2 as the compound, how does the melting point read?
Answer: 120 to 121 °C

Question: For COCCN(CCOC)c1ccc(Nc2ncc3c(C)c(C(C)=O)c(=O)n(C4CCCC4)c3n2)nc1, which melting point is on record?
Answer: 138 °C

Question: With O=C(CCC(=O)N1CCC(c2ccc(Cl)cc2)CC1)c1ccc2c(c1)CCN(C(=O)C(F)(F)F)CC2 as the compound, how does the melting point read?
Answer: 131 to 132 °C

Question: With c1cc2c(cc1-c1nc(OCC3CC3)nc3cc4c(cc13)OCO4)OCO2 as the compound, how does the melting point read?
Answer: 175 to 182 °C

Question: With C[C@@H](NC(=O)c1cnn(-c2ccc(C(F)(F)F)cc2)c1C(F)(F)F)[C@](O)(Cn1cncn1)c1ccc(F)cc1F as the compound, how does the melting point read?
Answer: 141 to 143 °C

Question: Which melting point does the source give for COc1cc2c(cc1Cl)NC(=O)C2=NNc1ccc(S(N)(=O)=O)cc1 here?
Answer: > 250 °C

Question: For C#CCC#CCON1C(=O)c2ccccc2C1=O, which melting point is on record?
Answer: 134 to 135 °C

Question: With O=C(Nc1cccc(Br)c1)N(Cc1ccccc1)Cc1ccccc1 as the compound, how does the melting point read?
Answer: 102 to 103 °C

Question: Which melting point does the source give for C[C@]12CC[C@H](O)CC1=CCC1C2CC[C@@]2(C)C1CC[C@H]2n1cc(-c2ccccc2)nn1 (some centres undefined) here?
Answer: 234 to 236 °C

Question: For CCCc1c(C(=O)C(C)C)c2ccc(C(N)=O)cc2n1Cc1ccccc1Cl, which melting point is on record?
Answer: 85 to 86 °C

Question: With COC(=O)C1=C(C)NC(C)=C(C(=O)OC)C1c1cc(Br)ccc1OCC(=O)NCCO[N+](=O)[O-] as the compound, how does the melting point read?
Answer: 166 to 167 °C

Question: For CCCC(C(=O)OCC)n1cnc(C(N)=O)c1 (centres undefined), which melting point is on record?
Answer: 95 °C

Question: With NNC(=O)c1ccc2ncccc2c1 as the compound, how does the melting point read?
Answer: 193 to 194 °C

Question: With COc1cccc(CC(NC(C)=O)C(=O)O)c1OCc1ccccc1 (racemic) as the compound, how does the melting point read?
Answer: 169 to 170 °C

Question: Which melting point does the source give for COc1ccc(Cl)c2c1c1c(n2Cc2ccccc2)CCCC1C(N)=O (centres undefined) here?
Answer: 205 to 208 °C

Question: Which melting point does the source give for C=CC(O)C1OC(C)(C)OC1C(O)CO (centres undefined) here?
Answer: 73 to 74 °C

Question: Which melting point does the source give for CSc1nc(NCC=C(C)C)c2ccnc-2[nH]1 here?
Answer: 155 to 156 °C

Question: Which melting point does the source give for Cc1[nH]nc(Oc2ccc([N+](=O)[O-])cc2C(F)(F)F)c1C here?
Answer: 97 to 99 °C

Question: For COc1ccc(-c2ccccc2NC(N)=S)cc1, which melting point is on record?
Answer: 158 to 159 °C

Question: Which melting point does the source give for O=[N+]([O-])c1ccc(CN2CC=C(/C=C/c3ccccc3)CC2)cc1 here?
Answer: 142 to 144 °C

Question: Which melting point does the source give for C=C(C(=O)NC1CCCCC1)c1ccccc1 here?
Answer: 131 to 133 °C

Question: With CC(C)(C)OC(=O)CN(C(=O)CNC(=O)Nc1ccc(Cl)cc1)c1ccccc1C(=O)c1ccccc1 as the compound, how does the melting point read?
Answer: 196 to 197 °C

Question: Which melting point does the source give for CC(C)C(NC(=O)C(CC(=O)OC(C)(C)C)NC(=O)CCNC(=O)OCc1ccccc1)C(=O)OC(C)(C)C (centres undefined) ({Cbz-βAla}-Asp(OtBu)-Val-OtBu; configuration not given here) here?
Answer: 126 °C

Question: Which melting point does the source give for NS(=O)(=O)c1ccc(NN=C2C(=O)Nc3cc4c(cc32)OCO4)cc1 here?
Answer: > 220 °C

Question: Which melting point does the source give for Nc1n[nH]c2c1cnc1c(NC(=O)c3c(Cl)cccc3Cl)cccc12 here?
Answer: > 300 °C

Question: With O=C(NCc1c[nH]c(-c2cc3nc(C(=O)O)c(=O)[nH]c3cc2[N+](=O)[O-])n1)Nc1ccccc1F as the compound, how does the melting point read?
Answer: 300 °C

Question: Which melting point does the source give for CCc1cc(Cl)n2nccc2n1 here?
Answer: 66 to 68 °C

Question: With Cc1cc(C)nc([NH+]([O-])C(=O)Cc2cccs2)c1 (centres undefined) as the compound, how does the melting point read?
Answer: 154 to 155 °C

Question: Which melting point does the source give for CN(C)C=Nc1c(Cl)cc(N=Cc2ccc(-c3ccccc3)cc2)cc1Cl here?
Answer: 108 to 110 °C

Reference: a melting point compilation (Tetko et al.; mined from patent text by program, amines drawn as free bases though some values may be those of a salt)
